Data as given in patent US10494402B2, “Peptides that stimulate subcutaneous adipogenesis” (The Regents of the University of California, priority 2012, dated 2019).

Legend:
[1] = tested on: rat mesenchymal stem cells; assay: Adipogenesis Assay 1 (IBMX/dexamethasone priming, peptide replaces insulin; Oil Red O or BODIPY); type: cell-based; conditions: for adipogenic activity, Oil Red O, fold change relative to negative control / Fold adipogenic induction vs. negative control / Specific activity (activity/1000 daltons): Assay 1; for adipogenic activity, Oil Red O, fold change relative to negative control: 0.5, 5, and 50 μg/ml over 3 weeks; for adipogenic activity of truncation fragments: truncation experiments, assays 1 and 2, FIGS. 7, 8, 9
Description: Reagents: (1) 3-isobutyl-1-methylxanthine (IBMX) solution: 0.5M in DMSO; (2) Insulin solution: 10 mg/mL recombinant human insulin; (3) Dexamethasone solution in 10 mM in ethanol; (4) Oil Red O (0.36% in 60% isopropanol) or BODIPY dye (BODIPY 493/503 (4,4-difluoro-1,3,5,7-tetramethyl-4-bora-3a,4a-diaza-s-indacene-8-propionic acid, succinimidyl ester) from Invitrogen at 4-10 μM).
Adipogenesis Initiation Media: mesenchymal stem cell expansion media/0.5 mM IBMX/1 μM dexamethasone. Mesenchymal stem cell expansion media is commercially available from Millipore. The IBMX Solution was diluted 1:1000 and the Dexamethasone Solution was diluted 1:10,000 in expansion media containing antibiotics and antimycotics. The prepared media was stored at 4° C.
Adipogenesis Progression Media for positive control: mesenchymal stem cell expansion media/10 μg/mL insulin. The Insulin Solution was diluted 1:1000 in the expansion media and stored at 4° C.
Experimental Adipogenesis Progression Media: mesenchymal stem cell expansion media/1-100 μg/mL RHAMM antagonist peptides.
Adipogenesis Maintenance Media: mesenchymal stem cell expansion media containing antibiotics and antimycotics.
Negative Control Media: DMEM/10% normal calf serum.
Pre-adipocyte stem cells including bone marrow mesenchymal stem cells and fibroblasts including reticular and papillary dermal fibroblasts were propagated using standard tissue culture methods. Cells were trypsinized to remove the cells from the substratum. The trypsin was neutralized and cells were counted using a hemocytometer. Cells were resuspended at 30,000 cells/mL in expansion media. […] of cell suspension was plated per well of 24-well plate, with several wells left empty for blank well staining.
Cells were incubated for 1-2 days until they reached confluency. Approximately 1.8 mL of media was removed from each well and replaced with 2 mL Adipogenesis Initiation Media. For negative control wells, expansion media only was used at this step and for subsequent media changes. For all media changes, media was replaced as gently as possible to avoid disturbing the monolayer.
Cells were incubated for 48 hours at 37° C., 5% CO2. 2 mL media was removed from each well, and replaced with 2 mL either positive control or experimental Adipogenesis Progression Media per well. Cells were again incubated for 48 hours at 37° C., 5% CO2. 2 mL of media was removed from each well and replaced with 2 mL Adipogenesis Maintenance Media per well. In addition, media was added to the empty wells reserved for blank well staining Cells were incubated for at least 48 hours at 37° C., 5% CO2. Media was replaced every 48-72 hours. Accumulation of intracellular lipid droplets continued for at least 5 days.
For quantification of Oil Red O staining, media was removed and cells were washed twice with PBS, using care to gently add the PBS. 0.5 mL Oil Red O solution was added per well of 24-well plate, including to the wells lacking cells, but containing media. Cells were incubated for 15 minutes at room temperature. The staining solution was then removed and wells were washed three times with 1 mL of phosphate buffered saline (PBS). In some experiments, following removal of the last wash, stained plates were scanned or photographed.
Adipogenesis was quantified using a spectrophotometer or fluorometer. 0.25 mL Dye Extraction Solution (isopropyl alcohol) was added per well, and the plate was set on an orbital shaker or platform rocker for 15-30 minutes. Extracted dye was transferred into a cuvette and absorbance was read in a spectrophotometer at visible range for oil red 0 or transferred to a 96-well plate and quantified in a plate reader.
For quantification of BODIPY dye uptake, media was removed and cells were washed twice with PBS, using care to gently add the PBS. Cells were then fixed in 3% paraformaldehyde, washed in PBS then incubated for 1 hour in the dark with the BODIPY solution, prepared in PBS. […]

[2] = tested on: rat mesenchymal stem cells; assay: Adipogenesis Assay 2 (dexamethasone/insulin/indomethacin induction, then peptide; Oil Red O or BODIPY); type: cell-based; conditions: for adipogenic activity of pentamers / adipogenic activity relative to KSEVSK hexamer: FIG. 35, groups labelled A2-, doses 1, 5, 25 μg, absorbance at 520 nm; for Fold adipogenic induction vs. negative control / Specific activity (activity/1000 daltons) / adipogenic activity, Oil Red O, fold change relative to negative control: Assay 2; for adipogenic activity, Oil Red O, fold change relative to negative control: 0.5, 5, and 50 μg/ml over 3 weeks
Description: Reagents: The dexamethasone, insulin, and Oil Red O solutions were the same as described above for assay 1. Indomethacin Solution contained 10 mM indomethacin in methanol. The BODIPY 493/503 dye was used at a concentration of 4 μM.
Adipogenesis Maintenance Media was prepared as described above.
Adipogenesis Induction Media: To prepare 501 mL of Adipogenesis Induction Media, 50 μL of the 10 mM stock solution of dexamethasone, 500 μL of the 10 mg/ml stock solution of insulin, 5 ml of a 10 mM stock solution of indomethacin, and 5 mL of a 100× stock solution of penicillin and streptomycin were added to 490 mL of mesenchymal stem cell expansion media.
Pre-adipocyte stem cells, bone marrow mesenchymal stem cells and fibroblasts such as dermal reticular and papillary fibroblasts were propagated using standard tissue culture methods. Cells were trypsinized to remove cells from the substratum, the trypsin was neutralized, and cells were counted using a hemocytometer. Cells were resuspended at 60,000 cells/ml in low glucose DMEM containing 10% calf serum. 1 mL of cell suspension per well was plated in a 24-well plate, with several wells left empty for blank well staining.
Cells were incubated overnight and had reached confluency at this point. Approximately 1.8 ml of media was removed from each well and replaced with 2 ml Adipogenesis Induction Media. For negative control wells, expansion medium only was used at this step and for subsequent media changes. For all media changes, media was replaced as gently as possible to avoid disturbing the monolayer.
Media was removed and replaced with 2 ml of maintenance medium containing either RHAMM antagonist peptides (experimental group) or insulin (concentration as in the induction medium used as positive control). […]
Media was removed and BODIPY or Oil Red O staining was performed as described above for assay 1.
As described above in Example 1, two different adipogenesis assays were used herein to assess the adipogenic effects of the peptides in rat mesenchymal stem cells. Assay 1 is an assay that is typically used to promote transdifferentiation of fibroblasts into adipocytes, whereas Assay 2 is typically used to promote differentiation of multi-potential mesenchymal progenitor cells into adipocytes. Immortalized rat bone marrow mesenchymal stem cells were used for both assays. These cells contain cells of different lineages, including fibroblasts, pre-adipocytes, pre-chondrocytes and pre-osteoblasts. Thus, Assay 1 was used to promote transdifferentiation of the fibroblast lineages into adipocytes and Assay 2 was used to promote differentiation of the pre-adipocytes into adipocytes.
As described in Example 1 above, the priming stimulus for Assay 1 includes IBMX (3-isobutyl-1-methylxanthine) and dexamethasone, and then insulin as the final adipogenic stimulus. The priming stimulus for assay 2 includes IBMX, dexamethasone and indomethacin, and then insulin as the final adipogenic stimulus.

[3] = tested on: 2D rat Pre-adipocytes (rat mesenchymal stem cells); assay: Adipogenic potential ranking in 2D tissue culture, rat pre-adipocytes; type: cell-based; conditions: ranked on a scale of 0-5 with 5 representing the highest possible score
Description: (§1) Examples of the adipogenic effects of RHAMM antagonists (peptide B (SEQ ID NO: 2), peptide P15-1 (SEQ ID NO. 1), and the antibody to peptide B) are summarized in Table 1. Peptide P15-1, peptide B, and a RHAMM antibody were assayed for their effects on pre-adipocyte stem cells in culture and when injected into the dermis of aged rats. Reagents were ranked on a scale of 0-5 with 5 representing the highest possible score and a completely filled in Harvey ball. “2D” refers to two-dimensional tissue culture.

Rat skin = assay: Rat dermal skin model of adipogenesis (injection into dermis); type: in vivo; conditions: injected into the dermis of aged rats; scale of 0-5, 5 highest
Description: as §1
In FIGS. 5A and 5B, data are shown as a ratio of the area (“surface area”) of fat pads expressed as a ratio of experimental/control values.
The 6-mer (KSEVSK; SEQ ID NO: 3) was tested for adipogenic effect in rat skin in vivo. The results of this testing are shown in the photographs in FIG. 10.

2D human Pre-adipocytes = assay: Adipogenic potential ranking in 2D tissue culture, human pre-adipocytes; type: cell-based; conditions: scale of 0-5, 5 highest
Description: as §1

[4] = tested on: mesenchymal stem cells or papillary fibroblasts; assay: Adipogenesis by RHAMM antagonists in tissue culture and in vivo (summary statements)
From the text: We hypothesized that the fragment and the antibody were blocking RHAMM function by competitive inhibition and by direct binding/blocking of RHAMM, respectively. Using truncation analyses, the size of the peptide was further reduced to 32 amino acids ([…] (SEQ ID NO: 92)) and it was shown that adipogenic activity is localized to a 15 amino acid peptide (KLKDENSQLKSEVSK (SEQ ID NO: 2); “peptide B” or “B-1” herein) shown in FIG. 2. This peptide was chemically synthesized to use as a competitive blocker, and antibodies were prepared against this sequence tagged with keyhold lymphocyte hemacyanin (KLH) to directly bind/block RHAMM function.
The RHAMM sequence that contains adipogenic activity also contains the hyaluronan binding region of this protein.
All of these reagents can replace insulin in their ability to promote adipogenesis in mesenchymal stem cells or papillary fibroblasts.

mesenchymal stem cell = assay: Adipogenesis with commercially available mesenchymal stem cell kit; type: cell-based
Description: Ablation of RHAMM expression promotes adipogenesis (Tolg et al., 2006, J Cell Biol). A RHAMM carboxy-terminal sequence [^AA681LDAFEAEKQA LLNEHGATQEQLNKIRDSYAQLLGHQNLKQKIKHVVKLKDENSQLKSEVSKLRSQLVKRKQNELRLQGELDKALGIRHFDPSKAFCHASKENFTPLKEGNPNCC^aa794 (SEQ ID NO: 91)] was produced as a recombinant protein, and antibodies were prepared to this protein fragment.

ASEVSA
adipogenic activity, Oil Red O, fold change relative to negative control [1]: significantly increased adipogenic activity as compared to both the negative control and the KSEVSK 6-mer

KLKDENS [fragment corresponding to one half of peptide B]
adipogenic activity of truncation fragments [1]: Only the SQLKSEVSK (SEQ ID NO: 44) fragment was found to be adipogenic

KSEVS
adipogenic activity of pentamers [2]: low level of adipogenic activity | adipogenic activity relative to KSEVSK hexamer [2]: much less active than the KSEVSK (SEQ ID NO: 3) hexamer

LKSEVSK
Fold adipogenic induction vs. negative control [1]: 2 | Specific activity (activity/1000 daltons) [1]: 2.26 activity/1000 daltons | adipogenic activity of truncation fragments [1]: also found to be adipogenic | Fold adipogenic induction vs. negative control [2]: 3 | Specific activity (activity/1000 daltons) [2]: 3.39 activity/1000 daltons

LSELEK
adipogenic activity, Oil Red O, fold change relative to negative control [2]: increased adipogenesis

SEVSK
adipogenic activity of pentamers [2]: low level of adipogenic activity | adipogenic activity relative to KSEVSK hexamer [2]: much less active than the KSEVSK (SEQ ID NO: 3) hexamer

SIMMSR
adipogenic activity, Oil Red O, fold change relative to negative control [1]: weakly adipogenic | adipogenic activity, Oil Red O, fold change relative to negative control [2]: weakly adipogenic

SQLKSEVSK
Fold adipogenic induction vs. negative control [1]: 2.4 | Specific activity (activity/1000 daltons) [1]: 2.11 activity/1000 daltons | adipogenic activity of truncation fragments [1]: found to be adipogenic | Fold adipogenic induction vs. negative control [2]: 3.0 | Specific activity (activity/1000 daltons) [2]: 2.64 activity/1000 daltons

STMMRSH
adipogenic activity, Oil Red O, fold change relative to negative control [1]: significantly greater adipogenic activity than the negative control | adipogenic activity, Oil Red O, fold change relative to negative control [2]: active at the 0.5 μg/ml concentration

STMMSRSHK
adipogenic activity of truncation fragments [1]: has adipogenic activity

STMMSRSHKTRSHHV [peptide P15-1, reference compound]
adipogenic potential, 2D rat Pre-adipocytes (rat mesenchymal stem cells) [3]: 2 | adipogenic potential, In vivo Rat skin (Rat skin): 2 | adipogenic potential, 2D human Pre-adipocytes (2D human Pre-adipocytes): 2 | adipogenesis in tissue culture and in vivo [4]: promotes adipogenesis in tissue culture and in vivo

STRMSR
adipogenic activity, Oil Red O, fold change relative to negative control [1]: weakly adipogenic | adipogenic activity, Oil Red O, fold change relative to negative control [2]: weakly adipogenic

STTMSR
adipogenic activity, Oil Red O, fold change relative to negative control [1]: weakly adipogenic | adipogenic activity, Oil Red O, fold change relative to negative control [2]: weakly adipogenic

B1: SEQ ID NO: 91: RHAMM carboxy-terminal sequence (aa681-aa794) produced as a recombinant protein (protein)
chain: LDAFEAEKQALLNEHGATQEQLNKIRDSYAQLLGHQNLKQKIKHVVKLKDENSQLKSEVSKLRSQLVKRKQNELRLQGELDKALGIRHFDPSKAFCHASKENFTPLKEGNPNCC
adipogenesis (mesenchymal stem cell): promoted adipogenesis
